Experimental data as given in PubChem BioAssay (NCI).
“And” between values parts separate entries of the source, which are not always exact repeats. Equal values may be shown once.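 Test compounds were applied to cells in 96-well plates for 48 hours at 5 doses. GI50 = concentration required for 50% inhibition of growth. TGI: total growth inhibition.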

Assays:
Experiment in all cases: DTP human tumour cell line panel, 48 h
[1] = system: DLD-1 colon
[2] = system: HT29 colon
[3] = system: K-562 leukemia
[4] = system: LOX IMVI melanoma
[5] = system: LXFL 529 NSCLC
[6] = system: NCI-H460 lung
[7] = system: NCI/ADR-RES ovarian
[8] = system: OVCAR-5 ovarian
[9] = system: SK-MEL-28 melanoma
[10] = system: UO-31 renal

| Structure (SMILES) | TGI [1] | TGI [2] | TGI [3] | TGI [4] | TGI [5] | TGI [6] | TGI [7] | TGI [8] | TGI [9] | TGI [10] | GI50 [5] | GI50 [7] | GI50 [1] | GI50 [2] | GI50 [3] | GI50 [4] | GI50 [6] | GI50 [8] | GI50 [9] | GI50 [10] |
| --- | --- | --- | --- | --- | --- | --- | --- | --- | --- | --- | --- | --- | --- | --- | --- | --- | --- | --- | --- | --- |
| CNC(=O)/C(=C/c1ccc(OC)cc1)c1cc(OC)c(OC)c(OC)c1 | > 100 µM | 17.5 µM | > 80.9 µM | > 100 µM | > 100 µM | 47.5 µM | > 100 µM | > 93.3 µM | > 100 µM | > 86 µM | – | – | – | – | – | – | – | – | – | – |
| COc1cccc2c1C(=O)c1c(O)c3c(c(O)c1C2=O)C[C@@](O)(C(C)=O)C[C@@H]3OC1CC(O)C(O)C(C)O1 (some centres undefined) | 15.9 µM | – | 14.5 µM | 3.77 µM and 2.6 µM | 15.3 µM | 2.73 µM and 5.19 µM | – | – | 25 µM | 10 µM | 1.49 µM | 0.214 nM | – | – | – | – | – | – | – | – |
| CC1(C)Cc2nnsc2C2=C1C(=O)CCS2 | > 100 µM | > 100 µM | > 100 µM | > 100 µM | > 100 µM | > 100 µM | – | > 100 µM | > 100 µM | > 100 µM | – | – | – | – | – | – | – | – | – | – |
| O=C1c2ccccc2C(=O)c2sc(Nc3ccc(Cl)cc3)nc21 | 3.41 µM | 15.5 µM | 5.12 µM | 2.91 µM | 3.1 µM | 11.7 µM | 5.52 µM | 7.37 µM | 3.36 µM | 6.35 µM | – | 2100 nM | – | – | – | – | – | – | – | – |
| Cc1cccc(C)c1NC(=O)CCCC(=O)C(C#N)c1ccc(Cl)cc1 (centres undefined) | > 100 µM | > 100 µM | > 100 µM | > 100 µM | > 100 µM | > 100 µM | – | > 100 µM | > 100 µM | > 100 µM | – | – | – | – | – | – | – | – | – | – |
| Cc1[nH]c(=O)nc(N/N=C/c2ccc(Cl)cc2)c1C(=O)Nc1ccc(Cl)cc1 | > 100 µM | > 100 µM | > 85.1 µM | > 90.8 µM | > 73.3 µM | 39.7 µM | > 100 µM | > 100 µM | > 86.1 µM | > 100 µM | – | – | – | – | – | – | – | – | – | – |
| C[CH2][Ge]([CH2]C)([CH2]C)[O]C(=O)C([O][Ge]([CH2]C)([CH2]C)[CH2]C)c1ccccc1 (centres undefined) | > 100 µM | 46.4 µM | 46.1 µM | 24.5 µM | 44.9 µM | > 100 µM | – | 74.1 µM | > 100 µM | 28.7 µM | 9.67 µM | – | 20.3 µM | 16.4 µM | 14.3 µM | 12 µM | 16.3 µM | 16.3 µM | 24.6 µM | 13 µM |
| CC(C)(C)c1cc(-c2c3nc(c(-c4cc(C(C)(C)C)cc(C(C)(C)C)c4)c4ccc([nH]4)c(-c4cc(C(C)(C)C)cc(C(C)(C)C)c4)c4nc(c(-c5cc(C(C)(C)C)cc(C(C)(C)C)c5)c5ccc2[nH]5)C=C4)C=C3)cc(C(C)(C)C)c1 | > 100 µM | > 100 µM | > 100 µM | > 100 µM | > 100 µM | > 100 µM | – | > 100 µM | > 100 µM | > 100 µM | – | – | – | – | – | – | – | – | – | – |
| CC1NCCc2c1[nH]c1cc(O)ccc21 (centres undefined) | > 100 µM | > 100 µM | > 100 µM | > 100 µM | > 100 µM | > 100 µM | – | > 100 µM | > 100 µM | > 100 µM | – | – | – | – | – | – | – | – | – | – |
